Test results: US12304932B2, “PACAP stabilized peptide” (SENJU PHARMACEUTICAL CO., LTD., priority 2017, dated 2025)
Square brackets hold non-standard residues; d marks the D form. Peptide text beside a SMILES is read from it. Ala(1H-tetrazol-5-yl) = N[C@@H](Cc1nnn[nH]1)C(=O)O

How the values were obtained:
[1] = Peptide stability test 5: Tris buffer pH 7.0, stored at 60° C., HPLC conditions 3; assay type: physicochemical; details: 100 μM peptide, Tris buffer pH 7.0, 60° C.
Method: Peptide 26 synthesized in Example 2 was weighed and dissolved in Tris buffer (pH 7.0) to prepare 1.0 mM peptide solutions. Each solution was filtered with a Chromatdisk (product of Merck Millipore, Millex-GV, 0.22 μm). The filtrate was diluted to 100 μM with Tris buffer (pH 7.0) and dispensed into a tube (Protein LoBind Tube by Eppendorf Co.). The prepared peptide solutions were incubated for one week or 2 weeks in a 60° C. thermostatic bath to obtain stored samples. A simultaneously prepared sample among the peptide solutions that was not stored was used as a standard sample (initial sample). The standard sample and the stored samples were stored at −30° C. until sample analysis.
The stored sample was measured under the following HPLC analysis conditions 3, and the survival rate alter correction for water for the peptide among the stored samples was calculated in the same manner as Example 3.
Column: XSelect CSH C18 by Waters Co., 5 μm, 4.6×250 mm
Guard column: XSelect CSH C18 by Waters Co., 5 4.6×20 mm Guard Cartridge
Detection wavelength: 220 nm
Mobile phase A: 0.1% formic acid in water
Mobile phase B: 0.1% formic acid in acetonitrile
Measuring time: 20 minutes
Measuring sample injection volume: 50 μL
Column temperature: 40° C.
Mobile phase delivery: The mixing ratio of mobile phase A and mobile phase B was varied as shown in Table 9 for linear concentration gradient control.

PAC1 receptor (PAC1R) = biological target: T1, PAC1 receptor (PAC1R) (Homo sapiens, UniProt P41586); details: background statement; cited from earlier work
T1 sequence (P41586 21-468): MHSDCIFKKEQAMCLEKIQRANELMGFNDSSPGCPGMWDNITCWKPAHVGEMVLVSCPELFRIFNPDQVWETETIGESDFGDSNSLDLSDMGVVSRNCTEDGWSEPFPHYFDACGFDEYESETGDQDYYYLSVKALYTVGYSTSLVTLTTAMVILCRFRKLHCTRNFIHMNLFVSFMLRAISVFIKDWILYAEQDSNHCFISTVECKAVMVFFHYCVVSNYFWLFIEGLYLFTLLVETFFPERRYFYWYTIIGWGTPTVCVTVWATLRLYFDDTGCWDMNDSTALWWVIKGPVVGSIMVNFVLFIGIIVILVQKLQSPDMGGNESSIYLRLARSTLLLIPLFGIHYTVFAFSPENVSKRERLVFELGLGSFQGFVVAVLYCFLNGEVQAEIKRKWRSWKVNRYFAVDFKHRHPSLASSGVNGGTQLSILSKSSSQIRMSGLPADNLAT

Molecule | survival rate after correction for water, 60° C., 1-week storage ([1]; 1 week) [%] | survival rate after correction for water, 60° C., 2-week storage ([1]; 2 weeks) [%] | affinity of PAC1R for PACAP relative to its affinity for VIP (PAC1 receptor (PAC1R))
CC[C@H](C)[C@H](NC(=O)CNC(=O)[C@H](Cc1nnn[nH]1)NC(=O)[C@H](CO)NC(=O)[C@H](Cc1c[nH]cn1)NC(C)=O)C(=O)N[C@@H](Cc1ccccc1)C(=O)N[C@H](C(=O)N[C@@H](Cc1nnn[nH]1)C(=O)N[C@@H](C)C(=O)N[C@@H](Cc1ccc(O)cc1)C(=O)N[C@@H](CO)C(=O)N[C@@H](CCCNC(=N)N)C(=O)N[C@@H](Cc1ccc(O)cc1)C(=O)N[C@@H](CCCNC(=N)N)C(=O)N[C@@H](CCCCN)C(=O)N[C@@H](C)C(=O)N[C@@H](CC(C)C)C(=O)N[C@@H](C)C(=O)N[C@H](C(=O)N[C@@H](CCCCN)C(=O)N[C@@H](CCCCN)C(=O)N[C@@H](Cc1ccc(O)cc1)C(=O)N[C@@H](CC(C)C)C(=O)N[C@@H](C)C(=O)N[C@@H](C)C(=O)N[C@H](C(=O)N[C@@H](CC(C)C)C(N)=O)C(C)C)C(C)C)[C@@H](C)O [Peptide 26] (Ac-HS[Ala(1H-tetrazol-5-yl)]GIFT[Ala(1H-tetrazol-5-yl)]AYSRYRKALAVKKYLAAVL-NH2) | 98.0 | 94.8 | 
Pituitary adenylate cyclase-activating polypeptide [PACAP] |  |  | more than 1000 times
